Laboratory results reported in patent publication US20240158348A1, “HERBICIDAL CYCLIC AMIDES N-SUBSTITUTED WITH A HALOALKYLSULFONYLANILIDE GROUP” (FMC Corporation, priority 2021, published 2024).

Columns and labels:
[1] = test system: ryegrass, Italian (Italian ryegrass, Lolium multiflorum); assay: Test A preemergence, Italian ryegrass; assay type: in vivo; conditions: pre-emergence, 240 h, 0 to 100 scale, 10 days, read-out: Plant response rating, Ryegrass, Italian; for pest or weed control at 31 g/ha: 31 g ai/ha; for pest or weed control at 125 g/ha: 125 g ai/ha
Text: (§1) Seeds of plant species selected from barnyardgrass (Echinochloa crus-galli), blackgrass (Alopecurus myosuroides), corn (Zea mays), foxtail, giant (giant foxtail, Setaria faberi), goosegrass (Eleusine indica), kochia (Bassia scoparia), oat, wild (wild oat, Avena fatua), pigweed, palmer (palmer amaranth, Amaranthus palmeri), pigweed, redroot (redroot pigweed, Amaranthus retroflexus), ragweed (common ragweed, Ambrosia artemisiifolia), ryegrass, Italian (Italian ryegrass, Lolium multiflorum), soybean (Glycine max), and wheat (Triticum aestivum) were planted into a blend of loam soil and sand and treated preemergence with a directed soil spray using test chemicals formulated in a non-phytotoxic solvent mixture which included a surfactant.
(§2) At the same time, plants selected from these crop and weed species and also galium (catchweed bedstraw, Galium aparine) and horseweed (Erigeron canadensis) were planted in pots containing the same blend of loam soil and sand and treated with postemergence applications of test chemicals formulated in the same manner. Plants ranged in height from 2 to 10 cm and were in the one- to two-leaf stage for the postemergence treatment. Treated plants and untreated controls were maintained in a greenhouse for 10 days, after which time all treated plants were compared to untreated controls and visually evaluated for injury. Plant response ratings, summarized in Table A, are based on a 0 to 100 scale where 0 is no effect and 100 is complete control. A dash (-) response means no test result.

[2] = test system: ryegrass, Italian (Italian ryegrass, Lolium multiflorum); assay: Test A postemergence, Italian ryegrass; assay type: in vivo; conditions: post-emergence, 240 h, 0 to 100 scale, 10 days, read-out: Plant response rating, Ryegrass, Italian; for pest or weed control at 31 g/ha: 31 g ai/ha; for pest or weed control at 125 g/ha: 125 g ai/ha
Text: as §1, §2

[3] = test system: barnyardgrass (Echinochloa crusgalli); assay: Test B flooded paddy test, barnyardgrass; assay type: in vivo; conditions: Echinochloa crus-galli; 250 g ai/ha, Flood; scale of 0 to 100 where 0 is no effect and 100 is complete control; visually evaluated after 10 to 14 days; read-out: Plant response rating, Barnyardgrass
Description: Plant species in the flooded paddy test selected from barnyardgrass (Echinochloa crusgalli), ducksalad (Heteranthera limosa), rice (Oryza sativa), and sedge, umbrella (small-flower umbrella sedge, Cyperus difformis) were grown to the 2-leaf stage for testing. At time of treatment, test pots were flooded to 3 cm above the soil surface, treated by application of test compounds directly to the paddy water, and then maintained at that water depth for the duration of the test. Treated plants and controls were maintained in a greenhouse for 10 to 14 days, after which time all species were compared to controls and visually evaluated. Plant response ratings, summarized in Table B, are based on a scale of 0 to 100 where 0 is no effect and 100 is complete control. A dash (-) response means no test result.

[4] = test system: blackgrass (Alopecurus myosuroides); assay: Test A preemergence, blackgrass; assay type: in vivo; conditions: 0 to 100 scale, 10 days
Text: as §1, §2

[5] = test system: oat, wild (wild oat, Avena fatua); assay: Test A postemergence, wild oat; assay type: in vivo; conditions: 0 to 100 scale, 10 days
Text: as §1, §2

melting point | Compound | pest or weed control at 31 g/ha [1] | pest or weed control at 125 g/ha [1] | pest or weed control at 31 g/ha [2] | pest or weed control at 125 g/ha [2] | pest or weed control at 250 g/ha [3] | Plant response rating, Blackgrass ([4]; 31 g ai/ha) | Plant response rating, Blackgrass ([4]; 125 g ai/ha) | Plant response rating, Oat, Wild ([5]; 31 g ai/ha) | Plant response rating, Oat, Wild ([5]; 125 g ai/ha)
134 to 137 °C | C=CCOC1CCN(c2cc(NS(=O)(=O)C(F)(F)F)c(C)cc2C)C1=O (centres unmarked) [Compound 2, N-[2,4-dimethyl-5-[2-oxo-3-(2-propen-1-yloxy)-1-pyrrolidinyl]phenyl]-1,1,1-trifluoromethanesulfonamide] | 90% | 100% | 70% | 70% | 40% | – | – | – | –
166 to 169 °C | Cc1cc(C)c(N2CCC(OC3CCC3)C2=O)cc1NS(=O)(=O)C(F)(F)F (centres unmarked) [Compound 4, N-[5-[3-(cyclobutyloxy)-2-oxo-1-pyrrolidinyl]-2,4-dimethylphenyl]-1,1,1-trifluoromethanesulfonamide] | 100% | 100% | 80% | 80% | 45% | 20 | 90 | 30 | 60
171 to 174 °C | Cc1cc(C)c(N2CCC(OC3CC3)C2=O)cc1NS(=O)(=O)C(F)(F)F (centres unmarked) [Compound 3, N-[5-[3-(cyclopropyloxy)-2-oxo-1-pyrrolidinyl]-2,4-dimethylphenyl]-1,1,1-trifluoromethanesulfonamide] | 90% | 100% | 90% | 90% | 90% | 80 | 100 | 40 | 80
164 to 167 °C | C#CCOC1CCN(c2cc(NS(=O)(=O)C(F)(F)F)c(C)cc2C)C1=O (centres unmarked) [Compound 1, N-[2,4-dimethyl-5-[2-oxo-3-(2-propyn-1-yloxy)-1-pyrrolidinyl]phenyl]-1,1,1-trifluoromethanesulfonamide] | 100% | 100% | 70% | 70% | 60% | – | – | – | –
